The results in this text go back to patent US20250361230A1, “LATS Inhibitors and Uses Thereof” (The USA, as Represented by the Secretary, Dept. of Heath …, priority 2022, published 2025).

The structures appear in SMILES notation. pIC50: −log10 of the molar value.

What all share (type): biochemical
Experiment [1] deals with T1, LATS1 (Homo sapiens, UniProt O95835).
T1 sequence (O95835 1-1130): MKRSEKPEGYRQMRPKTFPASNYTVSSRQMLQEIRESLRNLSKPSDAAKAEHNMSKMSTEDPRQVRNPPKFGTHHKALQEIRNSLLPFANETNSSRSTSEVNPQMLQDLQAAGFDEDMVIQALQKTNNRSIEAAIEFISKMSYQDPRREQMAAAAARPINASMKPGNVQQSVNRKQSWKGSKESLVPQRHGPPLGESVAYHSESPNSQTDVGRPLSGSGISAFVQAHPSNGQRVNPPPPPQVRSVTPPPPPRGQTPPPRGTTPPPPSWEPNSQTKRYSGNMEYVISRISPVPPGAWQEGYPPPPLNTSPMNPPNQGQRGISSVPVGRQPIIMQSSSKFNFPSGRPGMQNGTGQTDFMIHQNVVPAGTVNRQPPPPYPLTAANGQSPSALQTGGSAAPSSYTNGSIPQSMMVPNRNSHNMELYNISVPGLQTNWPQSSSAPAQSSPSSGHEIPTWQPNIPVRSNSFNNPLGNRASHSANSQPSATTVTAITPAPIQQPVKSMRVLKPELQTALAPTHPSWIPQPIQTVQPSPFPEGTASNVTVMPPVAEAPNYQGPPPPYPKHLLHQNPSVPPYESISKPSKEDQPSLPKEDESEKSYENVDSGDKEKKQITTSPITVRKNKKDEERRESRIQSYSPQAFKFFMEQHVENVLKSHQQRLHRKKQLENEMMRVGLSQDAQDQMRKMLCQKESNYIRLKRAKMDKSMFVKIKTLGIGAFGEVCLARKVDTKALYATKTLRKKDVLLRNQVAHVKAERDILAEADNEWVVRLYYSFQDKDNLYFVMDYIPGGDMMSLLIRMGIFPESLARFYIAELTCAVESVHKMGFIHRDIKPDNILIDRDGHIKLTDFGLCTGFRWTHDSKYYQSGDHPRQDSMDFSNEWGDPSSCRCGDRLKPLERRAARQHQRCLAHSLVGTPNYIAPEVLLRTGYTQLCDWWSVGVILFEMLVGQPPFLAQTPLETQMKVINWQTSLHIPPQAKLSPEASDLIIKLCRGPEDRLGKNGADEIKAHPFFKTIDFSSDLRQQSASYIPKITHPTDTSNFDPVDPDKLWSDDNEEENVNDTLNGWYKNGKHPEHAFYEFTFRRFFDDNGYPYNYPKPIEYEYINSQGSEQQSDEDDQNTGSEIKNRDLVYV
The experiment in a line: RBC HotSpot kinase assay (33P-ATP, P81 filter-binding), LATS1. The settings on record: Table 28, biochemical kinase assay; read-out: LATS1 IC50. In a few lines: (§1)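 Radiometric 33P-ATP kinase reaction in 20 mM Hepes pH 7.5, 10 mM MgCl2, 1 mM EGTA, 0.01% Brij35, 0.02 mg/ml BSA, 0.1 mM Na3VO4, 2 mM DTT, 1% DMSO. Compound preincubated with kinase and substrate 20 min, then 2 h at room temperature; P81 filter-binding read-out. IC50 (nM) from 10-point singlet curves.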

Experiment [2] concerns the target T2, LATS2 (Homo sapiens, UniProt Q9NRM7).
T2 sequence (Q9NRM7 1-1088): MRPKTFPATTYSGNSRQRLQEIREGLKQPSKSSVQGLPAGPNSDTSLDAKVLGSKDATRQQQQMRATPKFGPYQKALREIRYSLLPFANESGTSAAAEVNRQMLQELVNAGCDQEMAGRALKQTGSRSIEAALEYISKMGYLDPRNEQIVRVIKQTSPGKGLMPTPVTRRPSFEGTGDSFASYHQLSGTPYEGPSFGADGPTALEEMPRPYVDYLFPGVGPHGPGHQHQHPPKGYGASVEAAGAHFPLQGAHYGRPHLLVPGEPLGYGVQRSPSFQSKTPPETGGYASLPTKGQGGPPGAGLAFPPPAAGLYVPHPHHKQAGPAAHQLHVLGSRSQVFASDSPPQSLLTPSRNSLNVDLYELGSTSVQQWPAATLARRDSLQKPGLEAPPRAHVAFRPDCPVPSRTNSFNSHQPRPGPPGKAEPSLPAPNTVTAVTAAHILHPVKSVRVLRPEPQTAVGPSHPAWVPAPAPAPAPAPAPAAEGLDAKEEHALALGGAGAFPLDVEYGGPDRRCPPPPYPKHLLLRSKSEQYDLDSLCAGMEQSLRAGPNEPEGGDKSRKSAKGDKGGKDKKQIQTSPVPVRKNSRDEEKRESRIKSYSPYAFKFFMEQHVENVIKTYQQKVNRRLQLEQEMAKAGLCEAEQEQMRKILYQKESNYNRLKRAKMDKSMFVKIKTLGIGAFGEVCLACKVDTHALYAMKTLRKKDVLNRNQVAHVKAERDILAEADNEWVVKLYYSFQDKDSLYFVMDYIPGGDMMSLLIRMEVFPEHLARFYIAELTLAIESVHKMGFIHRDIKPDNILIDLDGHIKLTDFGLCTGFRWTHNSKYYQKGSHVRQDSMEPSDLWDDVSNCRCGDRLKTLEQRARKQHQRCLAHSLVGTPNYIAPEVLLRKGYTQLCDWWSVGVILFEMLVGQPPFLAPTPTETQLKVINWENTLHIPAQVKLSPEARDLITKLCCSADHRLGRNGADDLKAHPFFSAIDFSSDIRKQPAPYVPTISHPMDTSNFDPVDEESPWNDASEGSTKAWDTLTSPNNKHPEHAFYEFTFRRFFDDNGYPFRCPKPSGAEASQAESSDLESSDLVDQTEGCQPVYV
The experiment in a line: RBC HotSpot kinase assay (33P-ATP, P81 filter-binding), LATS2. The conditions noted are these: Table 28, biochemical kinase assay; read-out: LATS2 IC50. In a few lines: as §1

In experiment [3] the target is AKT (Homo sapiens, UniProt P31749). The experiment in a line: RBC HotSpot kinase assay (33P-ATP, P81 filter-binding), AKT. The settings on record: Table 28, biochemical kinase assay; read-out: AKT IC50. In a few lines: as §1
AKT, sequence (P31749 whole entry): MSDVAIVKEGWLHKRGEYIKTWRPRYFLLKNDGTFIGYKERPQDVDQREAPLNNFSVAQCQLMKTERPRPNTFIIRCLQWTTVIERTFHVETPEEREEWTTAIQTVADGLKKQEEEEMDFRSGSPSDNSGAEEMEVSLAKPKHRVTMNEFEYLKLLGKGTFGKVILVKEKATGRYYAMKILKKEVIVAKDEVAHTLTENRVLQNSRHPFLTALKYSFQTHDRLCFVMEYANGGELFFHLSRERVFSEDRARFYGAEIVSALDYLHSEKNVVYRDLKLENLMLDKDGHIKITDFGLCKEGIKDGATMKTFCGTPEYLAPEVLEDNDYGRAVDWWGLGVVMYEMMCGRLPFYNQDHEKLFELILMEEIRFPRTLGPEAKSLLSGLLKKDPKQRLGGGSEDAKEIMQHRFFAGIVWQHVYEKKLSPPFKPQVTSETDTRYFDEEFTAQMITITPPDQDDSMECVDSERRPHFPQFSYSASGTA

As to `Cc1cc(-c2ccnc3[nH]cc(F)c23)cc(F)c1[C@@]1(O)[C@H](C)CN(C(=O)[C@@H]2COCCN2)C[C@@H]1C` [Compound 68, ((3S,4R,5R)-4-(2-fluoro-4-(3-fluoro-1H-pyrrolo[2,3-b]pyridin-4-yl)-6-methylphenyl)-4-hydroxy-3,5-dimethylpiperidin-1-yl)((S)-morpholin-3-yl)methanone], the pIC50 was 7.86 in experiment [1], 8.18 in experiment [2] and 5.78 in experiment [3].

With `Cc1cc(-c2ccnc3[nH]cc(F)c23)cc(F)c1[C@@]1(O)[C@H](C)CN(C(=O)[C@@H]2C[C@@H](O)CN2)C[C@@H]1C` [Compound 69, ((3S,4R,5R)-4-(2-fluoro-4-(3-fluoro-1H-pyrrolo[2,3-b]pyridin-4-yl)-6-methylphenyl)-4-hydroxy-3,5-dimethylpiperidin-1-yl)((2S,4R)-4-hydroxypyrrolidin-2-yl)methanone], the pIC50 in experiment [1] was 8.07; in experiment [2] it was 8.47; in experiment [3], 6.17.

`Cc1cc(-c2ccnc3[nH]cc(F)c23)cc(F)c1[C@@]1(O)[C@H](C)CN(C(=O)[C@@H]2C[C@H](O)CN2)C[C@@H]1C` [Compound 70, ((3S,4R,5R)-4-(2-fluoro-4-(3-fluoro-1H-pyrrolo[2,3-b]pyridin-4-yl)-6-methylphenyl)-4-hydroxy-3,5-dimethylpiperidin-1-yl)((2S,4S)-4-hydroxypyrrolidin-2-yl)methanone]: the figures for the pIC50 in experiment [1], in experiment [2] and in experiment [3] were 8.11, 8.60 and 6.42, respectively.

For the molecule `Cc1cc(-c2ccnc3[nH]cc(F)c23)cc(F)c1[C@@]1(O)[C@H](C)CN(C(=O)CN(C)C)C[C@@H]1C` [Compound 71, 2-(dimethylamino)-1-((3S,4s,5R)-4-(2-fluoro-4-(3-fluoro-1H-pyrrolo[2,3-b]pyridin-4-yl)-6-methylphenyl)-4-hydroxy-3,5-dimethylpiperid-1-yl)ethan-1-one], the pIC50 in experiment [1] is 7.95; in experiment [2] it was 8.43; in experiment [3], 6.03.

`C[C@@H]1CN(C(=O)C2CC(C)(C)C2)C[C@H](C)C1(O)c1c(F)cc(-c2ccnc3[nH]cc(F)c23)cc1F` (stereo partly drawn) [Compound 72, ((3S,5R)-4-(2,6-difluoro-4-(3-fluoro-1H-pyrrolo[2,3-b]pyridin-4-yl)phenyl)-4-hydroxy-3,5-dimethylpiperidin-1-yl)(3,3-dimethylcyclobutyl) methanone]: the pIC50 was 7.56 in experiment [1], 7.22 in experiment [2] and less than 5.00 in experiment [3].

For `Cc1cc(-c2ccnc3[nH]cc(F)c23)cc(F)c1C1(O)[C@H](C)CN(C(=O)C2CC(F)(F)C2)C[C@@H]1C` (stereo partly drawn) [Compound 73, (3,3-difluorocyclobutyl) ((3S,5R)-4-(2-fluoro-4-(3-fluoro-1H-pyrrolo[2,3-b]pyridin-4-yl)-6-methylphenyl)-4-hydroxy-3,5-dimethylpiperidin-1-yl)methanone], the values for the pIC50 in experiment [1], in experiment [2] and in experiment [3] were 7.83, 7.49 and 5.19, respectively.

In the case of `C[C@@H]1CN(C(=O)C2CC(C(F)(F)F)C2)C[C@H](C)C1(O)c1c(F)cc(-c2ccnc3[nH]cc(F)c23)cc1F` (stereo partly drawn) [Compound 74, ((3S,5R)-4-(2,6-difluoro-4-(3-fluoro-1H-pyrrolo[2,3-b]pyridin-4-yl)phenyl)-4-hydroxy-3,5-dimethylpiperidin-1-yl)(3-(trifluoromethyl)cyclobutyl)methanone], the results for the negative-log IC50 (pIC50) in experiment [1], in experiment [2] and in experiment [3] were 7.45, 7.91 and less than 5.00, respectively.

In the case of `C[C@@H]1CN(C(=O)CN)C[C@H](C)[C@@]1(O)c1ccc(-c2ccnc3[nH]cc(F)c23)cc1Cl` [Compound 75, 2-amino-1-((3R,4s,S5S)-4-(2-chloro-4-(3-fluoro-1H-pyrrolo[2,3-b]pyridin-4-yl)phenyl)-4-hydroxy-3,5-dimethylpiperid-1-yl)ethan-1-one], the pIC50 is 7.70 in experiment [1], 8.30 in experiment [2] and 6.85 in experiment [3].
